# According to paper PMC3199744, “Preformulation and stability in biological fluids of the retrocyclin RC-101, a potential anti-HIV topical microbicide” (AIDS Research and Therapy, 2011):
# Columns and labels:
# [1] = Oxidation of RC-101 by hydrogen peroxide, HPLC; conditions: EDTA 1.0 μg/mL, H2O2 0.002%, RC-101 500 μg/mL, HPLC over time
# Method: For all pre-formulation studies described below, triplicate solutions of RC-101 (500 μg/mL) were prepared in either water or aqueous buffer solution. Thermal degradation studies were conducted at 25, 37, and 65°C for a minimum period of 1 week. The effect of pH on the stability of RC-101 was evaluated over the pH range from 3 to 12 using 10 mM phosphate buffer solutions, at low (50 mmol/kg) and high (500 mmol/kg) ionic strength. Oxidation of RC-101 was evaluated by exposing a solution of RC-101 to hydrogen peroxide (H2O2) at concentrations of 3.0, 0.08, and 0.002% (v/v). The high H2O2 concentration (3.0%) was selected as a forced degradation concentration. […] Protection against oxidation was investigated by the addition of antioxidants commonly used in pharmaceutical products. The antioxidants used in this study were: methionine (95.2 μg/mL or 250 μg/mL), cysteine (95.2 μg/mL), glutathione (90.9 μg/mL), vitamin E TPGS (90.9 μg/mL), ascorbic acid (1.0 mg/mL), sodium ascorbate (1.0 mg/mL), and EDTA (1.0 μg/mL).
# RC-101 concentration after exposure to preformulation conditions was analyzed by HPLC as previously described [11]. Briefly, the HPLC system (Waters Corporation, Milford, MA) was equipped with an autoinjector model 717, a quaternary pump model 600, and an ultraviolet (UV) detector model 2487 set up at 215 nm. Separation of RC-101 from degradant products was achieved using a Phenomenex Jupiter 5 μC5 300 Å (4.6 × 250 mm) column (Phenomenex, Torrance, CA) protected by a Widepore C5 (4 × 3.0 mm) guard cartridge (Phenomenex). The gradient consisted of mobile phase A (0.1% TFA in water (v/v)), and mobile phase B (0.07% TFA in acetonitrile (v/v)) pumped at a flow rate of 1.0 mL/min. […]
# HPLC data obtained from the preformulation studies were expressed as the average percentage of the peak area from time 0 ± standard deviation, n = 3. Results were analyzed by one-way analysis of variance (ANOVA) with multiple comparisons of individual time points by using post hoc Bonferroni correction to detect significant differences under different conditions. […]
# [2] = system: human ectocervical tissue; conditions: preliminary studies, data not shown
# [3] = system: normal vaginal microflora; conditions: preliminary studies, data not shown
compound,measurement,setting,value
"O=C(O)CN(CCN(CC(=O)O)CC(=O)O)CC(=O)O [EDTA, Ethylenediamine tetraacetic acid]",protection of RC-101 against oxidation after exposure to H2O2,[1],protection
same,toxic concentration,[2],≥ 1%
same,toxic concentration,[3],≥ 1%
